# pIC50: −log10 of the molar value.
# Key:
# [1] = Half-life in human liver microsomes (HLM); format: in vitro ADME; details: human liver microsomes 0.78 mg/mL, 1 μM compound, NADPH, 37° C.; for half-life at 1 μM: pH 7.4
# Procedure: Half-Life in Human Liver Microsomes (HLM)
# Test compounds (1 μM) are incubated with 3.3 mM MgCl2 and 0.78 mg/mL HLM (HL101) in 100 mM potassium phosphate buffer (pH 7.4) at 37° C. on the 96-deep well plate. The reaction mixture is split into two groups, a non-P450 and a P450 group. NADPH is only added to the reaction mixture of the P450 group. An aliquot of samples of P450 group is collected at 0, 10, 30, and 60 min time point, where 0 min time point indicated the time when NADPH is added into the reaction mixture of P450 group. […] Collected aliquots are extracted with acetonitrile solution containing an internal standard. […] The compound concentration in supernatant is measured by LC/MS/MS system.
# The half-life value is obtained by plotting the natural logarithm of the peak area ratio of compounds/internal standard versus time. The slope of the line of best fit through the points yields the rate of metabolism (k). This is converted to a half-life value using following equations: Half-life=ln 2/k
# P2X7 receptor = target: T1, P2X7 receptor (Homo sapiens, UniProt Q99572); experiment: IL-1β release assay in differentiated THP-1 cells (Example 9); format: cell-based; details: THP-1 cells differentiated with LPS and IFN-γ; 30 min pretreatment; BzATP 250 uM; IL-1β by ELISA
# T1 construct: host or cells: THP-1 cells differentiated with LPS and IFN-γ
# T1 sequence (Q99572 1-595): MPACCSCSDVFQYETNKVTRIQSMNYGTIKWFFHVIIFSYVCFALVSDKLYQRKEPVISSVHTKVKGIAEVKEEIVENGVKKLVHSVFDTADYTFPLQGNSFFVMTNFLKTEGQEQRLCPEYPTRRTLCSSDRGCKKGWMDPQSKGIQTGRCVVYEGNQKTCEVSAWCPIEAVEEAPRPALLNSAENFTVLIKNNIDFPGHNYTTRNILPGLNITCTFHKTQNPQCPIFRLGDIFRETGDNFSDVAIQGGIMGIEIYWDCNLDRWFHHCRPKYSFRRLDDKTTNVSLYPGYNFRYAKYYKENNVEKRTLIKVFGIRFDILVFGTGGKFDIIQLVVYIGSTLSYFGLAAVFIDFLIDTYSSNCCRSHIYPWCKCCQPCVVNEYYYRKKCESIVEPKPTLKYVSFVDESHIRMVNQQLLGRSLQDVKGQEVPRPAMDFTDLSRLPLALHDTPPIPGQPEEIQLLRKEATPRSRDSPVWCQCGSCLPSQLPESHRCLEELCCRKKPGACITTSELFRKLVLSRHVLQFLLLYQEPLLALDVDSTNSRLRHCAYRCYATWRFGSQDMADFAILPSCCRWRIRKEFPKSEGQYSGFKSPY
# Procedure: THP-1 cells (ATCC Cat #285-IF-100) are plated in 96 well plates at a concentration of 200,000 cells per well and allowed to differentiate in RPMI-1640 media (ATCC Cat #30-2001) containing 10% FBS, 100 IU/mL penicillin, 100 ug/mL streptomycin, 100 ng/mL LPS and 100 ng/mL IFN-γ for 16 hours. Following differentiation, the cells are treated for an additional 2 hours in RPMI-1640 media containing 100 IU/mL penicillin, 100 ug/mL streptomycin and fresh LPS at 100 ng/mL. The cells are then pretreated for 30 minutes with the compound of interest at the appropriate concentration in RPMI media containing 100 IU/mL penicillin, 100 ug/mL streptomycin. Following the pretreatment 2′,3′-O-(4-benzoylbenzoyl)-adenosine 5′-triphosphate (Sigma Aldrich Cat # B6396) is added to a final concentration of 250 uM, and the cells are incubated for an additional 45 minutes. 30 uL of cell supernatant is then collected and IL-1β levels are determined via ELISA (R&D systems Cat. # HSLB50) according to manufacturer's recommendations using a Tecan Safire plate reader. Background adjusted IL-1β levels of drug treated and non-treated cells are used to calculate the percent inhibition.
# The following compounds have been or can be prepared according to the synthetic methods described herein for example, methods A-AA1. The compounds set forth in Table 1 were tested for activity in a cellular model as described herein. Specifically, cells were pretreated with differing amounts of the compound under test and released IL-1β determined as in Example 9, above. Measurements were made and IC50 values, presented in Table 1, below, were determined by fitting the data to a four parameter logistic equation using GraphPad Prism software (GraphPad Software, Inc). The equation may be expressed by the following formula: Y=Bottom+(Top−Bottom)/(1+10^((Log EC50−X)*HillSlope)) where X is the logarithm of concentration, Y is the response and Y starts at Bottom and goes to Top with a sigmoid shape.
# [2] = Plasma protein binding by equilibrium dialysis, human plasma; format: in vitro ADME; details: pH 7.4, equilibrium dialysis 16 hr at 37° C., % Bound
# Procedure: The plasma protein binding of compounds of invention is measured in human and rat plasma, respectively. A stock solution of the tested compound is prepared in 1 mg/mL in DMSO solution. The stock solution is spiked into the blank plasma to get a final compound concentration at 1 μg/mL for testing. Equilibrium dialysis (The equilibrium dialyzer-96TM MWCO 5K Daltons, Harvard Apparatus) method is used for the testing purpose.
# The compound spiked plasma (at […]) and phosphate buffer (0.1 M, pH 7.4), 200 μl each, are added into the opposite sides of the membrane in a 96-well equilibrium dialyzer, respectively. The dialyzer plate is covered and incubated overnight (16 hr) at 37° C. in the 8-plate rotor incubator (Big Shot III 8-plate rotor, Harvard Apparatus). Aliquots (100 μL) are taken from the plasma and the buffer compartments, respectively. The matrix effects are eliminated by adding the same volume of blank plasma into the samples from buffer compartments and adding the same volume of phosphate buffer into the samples from plasma compartments. The samples are extracted by using the regular (3:1) protein precipitation extraction procedure (acetonitrile with internal standard). The supernatants are taken for LC/MS/MS analysis. The percentage of plasma-protein binding can be calculated by using the following method: % Free=[Free Drug/Total Drug]*100=[(Peak Area)buffer/(Peak Area)plasma]*100 % Bound=100−% Free.
# For the purpose of Table 4, the plasma protein binding of each compound is expressed as follows: […]
pIC50 (P2X7 receptor),"fraction unbound at 16 hr, 1 μg/mL [2]",half-life at 1 μM [1],SMILES,Half Life [1]
9.40,< 0.1,–,"C[C@H](CO)n1ccc2c(NC(=O)Cc3ccc(F)c(C(F)(F)F)c3)c(Cl)ccc2c1=O [Compound 13, N-[6-Chloro-2-((R)-2-hydroxy-1-methyl-ethyl)-1-oxo-1,2-dihydro-isoquinolin-5-yl]-2-(4-fluoro-3-trifluoromethyl-phenyl)-acetamide]",1.0 h
9.15,< 0.1,–,"Cc1ccc2c(=O)n([C@H](C)CO)ccc2c1NC(=O)Cc1ccc(F)c(C(F)(F)F)c1 [Compound 22, 2-(4-Fluoro-3-trifluoromethyl-phenyl)-N-[2-((R)-2-hydroxy-1-methyl-ethyl)-6-methyl-1-oxo-1,2-dihydro-isoquinolin-5-yl]-acetamide]",–
7.96,< 0.1,1.4 h,"Cc1ccc2c(=O)n([C@H](C)CO)ccc2c1NC(=O)Cc1cccc(C(F)(F)F)c1F [Compound 23, 2-(2-Fluoro-3-trifluoromethyl-phenyl)-N-[2-((R)-2-hydroxy-1-methyl-ethyl)-6-methyl-1-oxo-1,2-dihydro-isoquinolin-5-yl]-acetamide]",–
8.22,0.1 to 0.24,4.6 h,"Cc1ccc2c(=O)n([C@H](C)CO)ccc2c1NC(=O)Cc1ccc(C(F)(F)F)cc1 [Compound 25, N-[2-((R)-2-Hydroxy-1-methyl-ethyl)-6-methyl-1-oxo-1,2-dihydro-isoquinolin-5-yl]-2-(4-trifluoromethyl-phenyl)-acetamide]",–
9.10,–,0.4 h,"C[C@H](CO)n1ccc2c(C(=O)NCC3(O)CCCCCC3)c(Cl)ccc2c1=O [Compound 47, 6-Chloro-2-((R)-2-hydroxy-1-methyl-ethyl)-1-oxo-1,2-dihydro-isoquinoline-5-carboxylic acid (1-hydroxy-cycloheptylmethyl)-amide]",–
9.00,–,0.3 h,"C[C@H](CO)n1ccc2c(C(=O)NCC3(O)CCC(C)(C)CC3)c(Cl)ccc2c1=O [Compound 54, (R)-6-chloro-N-((1-hydroxy-4,4-dimethylcyclohexyl)methyl)-2-(1-hydroxypropan-2-yl)-1-oxo-1,2-dihydroisoquinoline-5-carboxamide]",–
8.30,0.1 to 0.24,–,"C[C@H](CO)n1ccc2c(C(=O)NCC3CCC(F)(F)CC3)c(Cl)ccc2c1=O [Compound 61, (R)-6-Chloro-N-((4,4-difluorocyclohexyl)methyl)-2-(1-hydroxypropan-2-yl)-1-oxo-1,2-dihydroisoquinoline-5-carboxamide]",–
9.22,0.25 to 0.49,–,"C[C@H](CO)n1ccc2c(C(=O)NCC3(O)CCC4(CC3)CC4)c(Cl)ccc2c1=O [Compound 63, 6-Chloro-2-((R)-1-hydroxypropan-2-yl)-N-((6-hydroxyspiro[2.5]octan-6-yl)methyl)-1-oxo-1,2-dihydroisoquinoline-5-carboxamide]",–
8.05,0.1 to 0.24,–,"Cc1ccc2c(=O)n([C@H](C)CN3CC(O)C3)ccc2c1NC(=O)Cc1ccc(C(F)(F)F)c(F)c1 [Compound 64, 2-(3-Fluoro-4-trifluoromethyl-phenyl)-N-{2-[(R)-2-(3-hydroxy-azetidin-1-yl)-1-methyl-ethyl]-6-methyl-1-oxo-1,2-dihydro-isoquinolin-5-yl}-acetamide]",–
8.70,0.1 to 0.24,–,Cc1ccc2c(=O)n([C@H](C)CN3CC[C@@H](N)C3)ccc2c1NC(=O)Cc1ccc(C(F)(F)F)c(F)c1 [Compound 67],–

SMILES,pIC50 (P2X7 receptor),"fraction unbound at 16 hr, 1 μg/mL [2]",half-life at 1 μM [1],Half Life [1]
"Cc1ccc2c(=O)n([C@H](C)CO)ccc2c1NC(=O)Cc1ccc(C(F)(F)F)c(F)c1 [Compound 21, N-[6-Methyl-2-((R)-2-hydroxy-1-methyl-ethyl)-1-oxo-1,2-dihydro-isoquinolin-5-yl]-2-(3-fluoro-4-trifluoromethyl-phenyl)-acetamide]",9.40,< 0.1,–,1.5 h

# Source: patent US8093265B2, “Bicycloheteroaryl compounds as P2X7 modulators and uses thereof” (Renovis, Inc., priority 2007, dated 2012)
